No end group written: not given here. Bounds are passed on as bounds.

In one test the target is T1, Akt1 (Homo sapiens, UniProt P31749).
T1 construct: made in house; host or cells: baculovirus / insect cells
In words: in vitro Akt1 kinase assay with biotinylated Bad-derived peptide substrate. Format: biochemical. As to conditions: FIG. 3.

A further test concerns SGK. Briefly: kinase selectivity assay, SGK. Format: biochemical. The source says: Enzymes: Akt1 was expressed and purified using a baculoviral system. PKA was purchased from Panvera. CDC2, […] and PKC gamma were purchased from Calbiochem, and SGK and Src were purchased from Upstate Biotechnology (Charlottesvilee, Va.).
Substrates: All substrates were custom synthesized by Genemed Synthesis, Inc. (San Francisco, Calif.) except the Src substrate, which was purchased from Promega (cat#V6480). The substrates had the general structure of Biotin-Ahx-peptide. The Akt assay used […]. The PKA assay used kemptide LRRASLG. The CDC2 assay used PKTPKKAKKL. The SGK assay used RPRAATF. The PKC delta and gamma used neurogranin ERMRPRKRQGSVRRRV. Phosphotidylserine and dioleyl-sn-glycerol were purchased from Avanti Polar Lipids (Alabaster, Ala.). Strepavidin Flash Plates were purchased from Perkin Elmer Life Sciences (Boston, Mass.).
Turning to the kinase selectivity assays, all the enzymes other than Akt were tested in 25 mM Hepes buffer pH 7.4, 10 mM MgCl2, 0.1 mM Na3VO4, 0.5 mM DTT and 0.075 mg/ml Triton X-100. […] Reactions were transferred to Flash Plates, vortexed and incubated at room temperature for 10 min, then washed 3 times with phosphate buffered saline with 0.05% Tween 20 and counted on a TopCount Packard Instruments gamma counter (Packard Instruments, Boston, Mass.). IC50s were calculated using the Assay Explorer software, sigmoidal curve fit by MDL.

Another test concerns the target Akt. Briefly: Ki. The procedure: Table printed on a drawing sheet, FIG.8
The patent's description of the figure: FIG. 8 represents the minimal length requirement for the peptide inhibitors. Different lengths of peptide inhibitor 2 were synthesized. For some of them, an acetyl group was added to the amino terminal end to increase the stability for cellular assays. These peptides were tested in the Akt assay described herein.
First copying reader's note: Ki values are for length variants of peptide inhibitor 2 tested in the Akt assay; the unit (μM) stands in the cells.
Where the first naming reader finds the target: description_of_the_figure: These peptides were tested in the Akt assay described herein.

The subject of test [1] is Akt1-FL (full-length Akt1). In words: IC50 (Akt1-FL*). The procedure: Table printed on a drawing sheet, FIG.3B
Head of the field: IC50 (Akt1-FL*)
Footnotes: *FL: FULL-LENGTH
The patent's description of the figure: FIG. 3: FIG. 3A illustrates Akt1 inhibition by the five Akt1 peptide inhibitors. FIG. 3B illustrates the IC50 of the five peptide inhibitors.
First copying reader's note: For peptide 5 the sheet prints a percent value at 128μM in place of an IC50.
Where the first naming reader finds the target: head: IC50 (Akt1-FL*)

The target of a further test is mouse Akt1 (Mus musculus, UniProt P31750). Conditions: mouse Akt1, J. Biol. Chem. 275:36108-36115 (2000); cited from earlier work.
mouse Akt1, sequence (P31750 whole entry): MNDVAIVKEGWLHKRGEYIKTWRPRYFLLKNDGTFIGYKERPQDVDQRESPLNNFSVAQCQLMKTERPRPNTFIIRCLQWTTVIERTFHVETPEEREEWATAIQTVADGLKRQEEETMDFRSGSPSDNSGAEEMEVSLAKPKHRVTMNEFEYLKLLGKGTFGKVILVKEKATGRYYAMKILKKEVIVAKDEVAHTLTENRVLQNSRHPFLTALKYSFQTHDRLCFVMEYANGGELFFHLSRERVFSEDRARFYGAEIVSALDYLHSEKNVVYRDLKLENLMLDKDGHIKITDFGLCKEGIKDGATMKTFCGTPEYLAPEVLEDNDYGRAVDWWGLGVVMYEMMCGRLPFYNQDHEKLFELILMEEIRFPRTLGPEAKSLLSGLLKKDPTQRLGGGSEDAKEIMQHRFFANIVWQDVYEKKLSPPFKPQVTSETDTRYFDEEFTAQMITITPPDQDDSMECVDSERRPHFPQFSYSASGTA

T1 sequence (P31749 whole entry): as the sequence (P31750 whole entry) above, with N2S, S50A, A100T, R112K, T117E, T389K, N410G, D415H counted along it

Consider `CC(C)C[C@H](NC(=O)[C@H](CCC(=O)O)NC(=O)[C@@H](N)C(C)C)C(=O)N[C@@H](CC(=O)O)C(=O)N1CCC[C@H]1C(=O)N[C@@H](CCC(=O)O)C(=O)N[C@@H](Cc1ccccc1)C(=O)N[C@@H](CCC(=O)O)C(=O)N1CCC[C@H]1C(=O)N[C@@H](CCCNC(=N)N)C(=O)N[C@@H](C)C(=O)N[C@@H](CCCNC(=N)N)C(=O)N[C@@H](CCC(=O)O)C(=O)N[C@@H](CCCNC(=N)N)C(=O)N[C@H](C(=O)N[C@@H](Cc1ccc(O)cc1)C(=O)N[C@@H](CO)C(=O)N[C@@H](Cc1ccccc1)C(=O)NCC(=O)N[C@@H](Cc1c[nH]cn1)C(=O)O)[C@@H](C)O` [Peptide 1], for which the “relative potency of Akt1 inhibition (in words)” value on Akt1 is listed as “most potent inhibitor against Akt1”. Besides, the “inhibition on SGK (in words)” value in the test on SGK is reported as “inhibition was observed”. In addition, the Ki on SGK (highest concentration tested 50 μM, 10 μM ATP) amounted to 1 µM.
In the case of Ac-ERTYAFGH, the Ki at Akt is more than 100 µM.
On the same count and under the same terms, for Ac-DPEFEPRARERTYAFGH the value was 0.26 µM.
Turning to VELDPEFEPRARER T Y S F GH [1:], 0.49 µM corresponded to half-maximal inhibition in test [1] (IC50).
In the case of Ac-FEPRARERTYAFGH, on Akt, the Ki was 1.44 µM.
In turn, VELDPEFEPRARER A Y A F GH [4:] showed a half-maximal inhibitory concentration (IC50) in test [1] of 0.21 µM. This lies in the sub-micromolar range.
VELDPEFEPRARER T Y A F GH [2:] came in with a concentration for half-maximal inhibition (IC50) in test [1] of 0.28 µM. This IC50 and that of the compound before are within 1.5-fold of each other.
In turn, Ac-RARERTYAFGH displayed a Ki on Akt of 15.9 µM.
Still for that read-out and setting: for FEPRARERTYAFGH the value was 1.97 µM.
Turning to “5: peptide 2 with threonine at position 15 mutated to Asp (VELDPEFEPRARERDYAFGH; Variant of the wildtype Akt Sequence) [Peptide 5]”, the “relative potency of Akt1 inhibition (in words)” value with Akt1 is recorded as “least potent inhibitor”.
VELDPEFEPRARER T Y D F GH [3:] registered a 50% inhibitory concentration (IC50) in test [1] of 10.6 µM.
For ARKRERTYSFGHHA [AKTide-2T], the Ki at mouse Akt1 was 12 µM.

One may read the Ki as the dissociation constant of the complex between target and ligand, obtained from inhibition or displacement. What is called IC50 is the point on the concentration scale where inhibition reaches its midpoint. Lower therefore signals inhibition by little substance.

The record behind these values is patent US20040038883A1, “Peptide inhibitors of Akt and uses thereof” (priority 2002, published 2004).
